Laboratory results as given in ChEMBL document CHEMBL3046521, “Synthesis and antitumor activity of (4-hydroxyphenyl)[5-substituted alkyl/aryl)-2-thioxo-1,3,4-thiadiazol-3-yl]methanone and [(3,4-disubstituted)-1,3-thiazol-2ylidene]-4-hydroxybenzohydrazide” (2011).

Columns and labels:
Assay type in all cases: functional
[1] = tested on: HT-29; test: Cytotoxicity against Homo sapiens (human) HT-29 cells after 48 hr by sulforhodamine B assay; conditions: HT-29, 48 h
[2] = tested on: HCT-15; test: Cytotoxicity against Homo sapiens (human) HCT15 cells after 48 hr by sulforhodamine B assay; conditions: HCT-15, 48 h
[3] = tested on: COLO 205; test: Cytotoxicity against Homo sapiens (human) COLO205 cells after 48 hr by sulforhodamine B assay; conditions: COLO 205, 48 h
[4] = tested on: NCI-H23; test: Cytotoxicity against Homo sapiens (human) NCI-H23 cells after 48 hr by sulforhodamine B assay; conditions: NCI-H23, 48 h
[5] = tested on: HOP-62; test: Cytotoxicity against Homo sapiens (human) HOP62 cells after 48 hr by sulforhodamine B assay; conditions: HOP-62, 48 h
[6] = tested on: A549; test: Cytotoxicity against Homo sapiens (human) A549 cells after 48 hr by sulforhodamine B assay; conditions: A549, 48 h
[7] = Cytotoxicity against Homo sapiens (human) […] cells after 48 hr by sulforhodamine B assay
[8] = tested on: K562; test: Cytotoxicity against Homo sapiens (human) K562 cells after 48 hr by sulforhodamine B assay; conditions: K562, 48 h
[9] = tested on: CCRF-CEM; test: Cytotoxicity against Homo sapiens (human) CCRF-CEM cells after 48 hr by sulforhodamine B assay
[10] = tested on: LOX IMVI; test: Anticancer activity in Homo sapiens (human) LOXIMVI cells assessed as cell growth at 10^-5 M after 48 hr by SRB assay; conditions: read-out: Activity
[11] = tested on: MDA-MB-468; test: Cytotoxicity against Homo sapiens (human) MDA-MB-468 cells after 48 hr by sulforhodamine B assay; conditions: MDA-MB-468, 48 h
[12] = tested on: Hs-578T; test: Cytotoxicity against Homo sapiens (human) Hs 578T cells after 48 hr by sulforhodamine B assay
[13] = tested on: MDA-MB-231; test: Cytotoxicity against Homo sapiens (human) MDA-MB-231 cells after 48 hr by sulforhodamine B assay; conditions: MDA-MB-231, 48 h
[14] = tested on: DU-145; test: Cytotoxicity against Homo sapiens (human) DU145 cells after 48 hr by sulforhodamine B assay; conditions: DU-145, 48 h
[15] = tested on: UO-31; test: Cytotoxicity against Homo sapiens (human) UO31 cells after 48 hr by sulforhodamine B assay; conditions: UO-31, 48 h
[16] = tested on: TK-10; test: Cytotoxicity against Homo sapiens (human) TK10 cells after 48 hr by sulforhodamine B assay; conditions: TK-10, 48 h
[17] = tested on: ACHN; test: Cytotoxicity against Homo sapiens (human) ACHN cells after 48 hr by sulforhodamine B assay
[18] = tested on: SK-OV-3; test: Cytotoxicity against Homo sapiens (human) SKOV3 cells after 48 hr by sulforhodamine B assay; conditions: SK-OV-3, 48 h
[19] = tested on: OVCAR-3; test: Cytotoxicity against Homo sapiens (human) OVCAR3 cells after 48 hr by sulforhodamine B assay; conditions: OVCAR-3, 48 h
[20] = tested on: IGROV-1; test: Cytotoxicity against Homo sapiens (human) IGROV1 cells after 48 hr by sulforhodamine B assay; conditions: IGROV-1, 48 h
[21] = tested on: UACC-257; test: Cytotoxicity against Homo sapiens (human) UACC257 cells after 48 hr by sulforhodamine B assay; conditions: UACC-257, 48 h
[22] = tested on: UACC-62; test: Cytotoxicity against Homo sapiens (human) UACC62 cells after 48 hr by sulforhodamine B assay; conditions: UACC-62, 48 h
[23] = tested on: SK-MEL-5; test: Cytotoxicity against Homo sapiens (human) SK-MEL-5 cells after 48 hr by sulforhodamine B assay; conditions: SK-MEL-5, 48 h
[24] = tested on: SK-MEL-28; test: Cytotoxicity against Homo sapiens (human) SK-MEL-28 cells after 48 hr by sulforhodamine B assay; conditions: SK-MEL-28, 48 h
[25] = tested on: M14; test: Cytotoxicity against Homo sapiens (human) M14 cells after 48 hr by sulforhodamine B assay; conditions: M14, 48 h
[26] = tested on: Malme-3M; test: Cytotoxicity against Homo sapiens (human) MALME-3M cells after 48 hr by sulforhodamine B assay
[27] = tested on: SNB-75; test: Cytotoxicity against Homo sapiens (human) SNB75 cells after 48 hr by sulforhodamine B assay; conditions: SNB-75, 48 h
[28] = tested on: SF-295; test: Cytotoxicity against Homo sapiens (human) SF295 cells after 48 hr by sulforhodamine B assay; conditions: SF-295, 48 h
[29] = tested on: SW-620; test: Cytotoxicity against Homo sapiens (human) SW620 cells after 48 hr by sulforhodamine B assay; conditions: SW-620, 48 h

In the case of `COc1ccc(-c2cs/c(=N\NC(=O)c3ccc(O)cc3)n2-c2ccc(OC)cc2OC)cc1`, the GI50 [1] is reported as 3.63 µM, the LC50 [1] is reported as over 100 µM and the TGI ([1]; read-out: pTGI (converted)) is reported as 17 µM. The GI50 [2] was 3.55 µM, the LC50 (concentration killing 50% of cells) [2] was over 100 µM and the TGI ([2]; read-out: pTGI (converted)) was over 100 µM. The GI50 [3] was 4.47 µM, the LC50 [3] was 79.4 µM and the TGI ([3]; read-out: pTGI (converted)) was 20.9 µM. The GI50 [4] was 11 µM, the LC50 [4] was over 100 µM and the TGI ([4]; read-out: pTGI (converted)) was over 100 µM. For the same molecule, the GI50 [5] was 2.95 µM, the LC50 [5] was 49 µM and the TGI ([5]; read-out: pTGI (converted)) was 7.59 µM. The GI50 [6] was 6.03 µM, the LC50 [6] was over 100 µM and the TGI ([6]; read-out: pTGI (converted)) was over 100 µM. The GI50 [7] was 3.8 µM, the LC50 [7] was over 100 µM and the TGI ([7]; read-out: pTGI (converted)) was over 100 µM. It also gave a GI50 [8] of 2.19 µM, an LC50 [8] of over 100 µM and a TGI ([8]; read-out: pTGI (converted)) of over 100 µM. It also gave a GI50 [9] of 9.77 µM, an LC50 [9] of over 100 µM and a TGI ([9]; read-out: pTGI) of over 100 µM. The growth at 10 µM [10] was 58.3%, the GI50 [11] was 3.89 µM and the LC50 [11] was over 100 µM. It also gave a TGI ([11]; read-out: pTGI (converted)) of over 100 µM, a GI50 [12] of 6.92 µM and an LC50 [12] of over 100 µM. For the same molecule, the TGI ([12]; read-out: pTGI (converted)) was 53.7 µM, the GI50 [13] was 3.16 µM and the LC50 [13] was over 100 µM. For the same molecule, the TGI ([13]; read-out: pTGI (converted)) was 20 µM, the GI50 [14] was 8.13 µM and the LC50 [14] was over 100 µM. The TGI ([14]; read-out: pTGI (converted)) was 40.7 µM, the GI50 [15] was 4.68 µM and the LC50 [15] was over 100 µM. It also gave a TGI ([15]; read-out: pTGI) of over 100 µM, a GI50 [16] of 13.5 µM and an LC50 [16] of over 100 µM. For the same molecule, the TGI ([16]; read-out: pTGI (converted)) was 75.9 µM, the GI50 [17] was 4.79 µM and the LC50 [17] was over 100 µM. For the same molecule, the TGI ([17]; read-out: pTGI (converted)) was over 100 µM, the GI50 [18] was 15.1 µM and the LC50 [18] was over 100 µM. The TGI ([18]; read-out: pTGI (converted)) was 100 µM, the GI50 [19] was 3.8 µM and the LC50 [19] was 95.5 µM. The TGI ([19]; read-out: pTGI (converted)) was 17 µM, the GI50 [20] was 7.94 µM and the LC50 [20] was over 100 µM. The TGI ([20]; read-out: pTGI (converted)) was over 100 µM, the GI50 [21] was 15.1 µM and the LC50 [21] was over 100 µM. It also gave a TGI ([21]; read-out: pTGI (converted)) of over 100 µM, a GI50 [22] of 4.47 µM and an LC50 [22] of 85.1 µM. For the same molecule, the TGI ([22]; read-out: pTGI (converted)) was 22.9 µM, the GI50 [23] was 5.37 µM and the LC50 [23] was 52.5 µM. For the same molecule, the TGI ([23]; read-out: pTGI (converted)) was 19.5 µM, the GI50 [24] was 7.24 µM and the LC50 (concentration killing 50% of cells) [24] was over 100 µM. For the same molecule, the TGI ([24]; read-out: pTGI (converted)) was 53.7 µM, the GI50 [25] was 5.5 µM and the LC50 [25] was over 100 µM. The TGI ([25]; read-out: pTGI (converted)) was 27.5 µM, the GI50 [26] was 5.37 µM and the LC50 [26] was over 100 µM. The TGI ([26]; read-out: pTGI (converted)) was 64.6 µM, the GI50 [27] was 22.9 µM and the LC50 [27] was over 100 µM. For the same molecule, the TGI ([27]; read-out: pTGI (converted)) was over 100 µM, the GI50 [28] was 2.82 µM and the LC50 [28] was over 100 µM. For the same molecule, the TGI ([28]; read-out: pTGI (converted)) was 9.77 µM, the GI50 [29] was 4.37 µM and the LC50 [29] was over 100 µM. It also gave a TGI ([29]; read-out: pTGI (converted)) of 43.7 µM.
